Like-named read-outs stand apart in the source and are kept apart here.
How the values were obtained:
[1] = system: Key Grass and Sedge Weeds as well as Grass Crops; experiment: Post-emergent Test II herbicidal activity (Table 16); format: in vivo; conditions: post-emergence, 336 h, 14 d; for pest or weed control at 35 g/ha: 35 g ai/ha; for pest or weed control at 70 g/ha: 70 g ai/ha; for pest or weed control at 140 g/ha: 140 g ai/ha
Procedure, shortened: (§1)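 Post-emergence spray; seedlings 7-21 d old, 1st-2nd true leaf; 187 L/ha; serial rates 1×-1/16×; solvent blank controls; subirrigated; visual % injury at 14 d.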

[2] = system: Key Broadleaf Weed and Crop Species; experiment: Post-emergent Test II herbicidal activity (Table 15); format: in vivo; conditions: post-emergence, 336 h, 14 d; for pest or weed control at 35 g/ha: 35 g ai/ha; for pest or weed control at 70 g/ha: 70 g ai/ha; for pest or weed control at 140 g/ha: 140 g ai/ha
Procedure, shortened: as §1

[3] = Cyperus esculentus, yellow nutsedge (Cyperus esculentus), read-out: Visual Growth Reduction (%) 14 Days After Application, CYPES
[4] = Echinochloa crus-galli, barnyardgrass (Echinochloa crus-galli), read-out: Visual Growth Reduction (%) 14 Days After Application, ECHCG
[5] = Oryza sativa, rice (Oryza sativa), read-out: Visual Growth Reduction (%) 14 Days After Application, ORYSA
[6] = Setaria faberi, giant foxtail (Setaria faberi), read-out: Visual Growth Reduction (%) 14 Days After Application, SETFA
[7] = Triticum aestivum, wheat, spring (Triticum aestivum), read-out: Visual Growth Reduction (%) 14 Days After Application, TRZAS
[8] = Zea mays, maize, corn (Zea mays), read-out: Visual Growth Reduction (%) 14 Days After Application, ZEAMX
[9] = Abutilon theophrasti, velvetleaf (Abutilon theophrasti), read-out: Visual Growth Reduction (%) 14 Days After Application, ABUTH
[10] = Amaranthus retroflexus, redroot pigweed (Amaranthus retroflexus), read-out: Visual Growth Reduction (%) 14 Days After Application, AMARE
[11] = Brassica napus, oilseed rape, canola (Brassica napus), read-out: Visual Growth Reduction (%) 14 Days After Application, BRSNN
[12] = Chenopodium album, lambsquarters (Chenopodium album), read-out: Visual Growth Reduction (%) 14 Days After Application, CHEAL
[13] = Euphorbia heterophylla, wild poinsettia (Euphorbia heterophylla), read-out: Visual Growth Reduction (%) 14 Days After Application, EPHHL
[14] = Helianthus annuus, sunflower (Helianthus annuus), read-out: Visual Growth Reduction (%) 14 Days After Application, HELAN

melting point [°C]	SMILES	pest or weed control at 35 g/ha [1, 3] [%]	pest or weed control at 70 g/ha [1, 3] [%]	pest or weed control at 140 g/ha [1, 3] [%]	pest or weed control at 35 g/ha [1, 4] [%]	pest or weed control at 70 g/ha [1, 4] [%]	pest or weed control at 140 g/ha [1, 4] [%]	pest or weed control at 35 g/ha [1, 5] [%]	pest or weed control at 70 g/ha [1, 5] [%]	pest or weed control at 140 g/ha [1, 5] [%]	pest or weed control at 35 g/ha [1, 6] [%]	pest or weed control at 70 g/ha [1, 6] [%]	pest or weed control at 140 g/ha [1, 6] [%]	pest or weed control at 35 g/ha [1, 7] [%]	pest or weed control at 70 g/ha [1, 7] [%]	pest or weed control at 140 g/ha [1, 7] [%]	pest or weed control at 35 g/ha [1, 8] [%]	pest or weed control at 70 g/ha [1, 8] [%]	pest or weed control at 140 g/ha [1, 8] [%]	pest or weed control at 35 g/ha [2, 9] [%]	also measured
178	COC(=O)c1nc(-c2ccc(Cl)c3ccoc23)nc(N)c1OC [Compound 2.26]	0 to 29	0 to 29	0 to 29	0 to 29	0 to 29	0 to 29	0 to 29	0 to 29	0 to 29	0 to 29	0 to 29	0 to 29	0 to 29	0 to 29	0 to 29	0 to 29	0 to 29	0 to 29	45 to 59	pest or weed control at 70 g/ha [2, 9]: 60 to 74%; pest or weed control at 140 g/ha [2, 9]: 60 to 74%; pest or weed control at 35 g/ha [2, 10]: 95 to 100%; pest or weed control at 70 g/ha [2, 10]: 95 to 100%; pest or weed control at 140 g/ha [2, 10]: 95 to 100%; pest or weed control at 35 g/ha [2, 11]: 45 to 59%; pest or weed control at 70 g/ha [2, 11]: 60 to 74%; pest or weed control at 140 g/ha [2, 11]: 60 to 74%; pest or weed control at 35 g/ha [2, 12]: 95 to 100%; pest or weed control at 70 g/ha [2, 12]: 95 to 100%; pest or weed control at 140 g/ha [2, 12]: 95 to 100%; pest or weed control at 35 g/ha [2, 13]: 45 to 59%; pest or weed control at 70 g/ha [2, 13]: 60 to 74%; pest or weed control at 140 g/ha [2, 13]: 75 to 84%; pest or weed control at 35 g/ha [2, 14]: 75 to 84%; pest or weed control at 70 g/ha [2, 14]: 95 to 100%; pest or weed control at 140 g/ha [2, 14]: 95 to 100%
50 to 56	COC(=O)c1nc(-c2ccc3sccc3c2)c(Cl)c(N)c1Cl [Compound 3.01, Methyl 4-amino-6-(benzo[b]thiophenyl-5-yl)-3,5-dichloropicolinate]	0 to 29	0 to 29	0 to 29	0 to 29	0 to 29	0 to 29	0 to 29	0 to 29	0 to 29	0 to 29	0 to 29	0 to 29	0 to 29	0 to 29	0 to 29	0 to 29	45 to 59	60 to 74	60 to 74	pest or weed control at 70 g/ha [2, 9]: 60 to 74%; pest or weed control at 140 g/ha [2, 9]: 75 to 84%; pest or weed control at 35 g/ha [2, 10]: 85 to 94%; pest or weed control at 70 g/ha [2, 10]: 95 to 100%; pest or weed control at 140 g/ha [2, 10]: 95 to 100%; pest or weed control at 35 g/ha [2, 11]: 0 to 29%; pest or weed control at 70 g/ha [2, 11]: 0 to 29%; pest or weed control at 140 g/ha [2, 11]: 0 to 29%; pest or weed control at 35 g/ha [2, 12]: 95 to 100%; pest or weed control at 70 g/ha [2, 12]: 95 to 100%; pest or weed control at 140 g/ha [2, 12]: 95 to 100%; pest or weed control at 35 g/ha [2, 13]: 0 to 29%; pest or weed control at 70 g/ha [2, 13]: 0 to 29%; pest or weed control at 140 g/ha [2, 13]: 0 to 29%; pest or weed control at 35 g/ha [2, 14]: 75 to 84%; pest or weed control at 70 g/ha [2, 14]: 75 to 84%; pest or weed control at 140 g/ha [2, 14]: 85 to 94%

Reference: patent US20170050957A1, “4-AMINO-6-(HETEROCYCLIC)PICOLINATES AND 6-AMINO-2-(HETEROCYCLIC)PYRIMIDINE-4-CARBOXYLATES AND THEIR USE AS HERBICIDES” (Dow AgroSciences LLC, priority 2013, published 2017)
